≈ marks a conversion by molar mass, not a printed value. Where two headings read alike, the source gives them in different places.
Assays:
[1] = test system: VSV, vaccinia and herpes simplex-1 (KOS); assay type: cell-based, vaccinia and herpes simplex-1 (KOS) viruses; settings: for Antiviral activity of congeners: at 100 μg/ml (the highest level tested), PRK cells; for Antiviral activity of enantiomers and racemate: VSV/PRK, vaccinia/PRK, herpes simplex-1 (KOS)/PRK
Stability = assay type: physicochemical
adenosine deaminase = adenosine deaminase (Bos taurus, UniProt P56658); test: Deamination of ara-A by adenosine deaminase of calf intestinal mucosa (FIG. 3, FIG. 4); assay type: biochemical; settings: for Decrease in absorbance at 265 nm (extent of deamination): FIG. 3A
Experimental: FIG. 3 is a graphical representation showing the inhibitory effect of (S)-DHPA on deamination of ara-A by adenosine deaminase of calf intestinal mucosa. Deamination of ara-A was measured according to the method of Kalckar (compare J. Biol. Chem., 167, 461, […]), modified by Trams and Lauter (compare Biochem. J., 152, 681, 1975). The extent of deamination is equivalent to the decrease of absorbance at λ (wavelength)=265 nm. The decrease in absorbance at 265 nm was 0.11 if 50 nmol of ara-A were used, and was 0.16 if 100 nmol of ara-A were used (FIG. 3A).

vaccinia virus = assay type: cell-based; settings: for Virus yield: (S)-DHPA 30 μg/ml, ara-A 3 μg/ml, or both
DNA viruses; RNA viruses = settings: known from literature; cited from earlier work
Vaccinia = test: microbe, parasite or virus in culture; assay type: cell-based; settings: Orthopoxvirus vaccinia, read-out: ID50
Sindbis = test: microbe, parasite or virus in culture; assay type: cell-based; settings: BHK, read-out: ID50 (the source's name)
Polio-1 = test: microbe, parasite or virus in culture; assay type: cell-based, polio virus type 1; settings: read-out: ID50
Vesicular stomatitis = test: microbe, parasite or virus in culture; assay type: cell-based; settings: read-out: ID50
[2] = test system: vesicular stomatitis virus; test: microbe, parasite or virus in culture; assay type: cell-based; settings: HSF, read-out: Decrease of virus titer compared with control
[3] = test system: vesicular stomatitis virus; assay type: in vivo, NMRI mice; settings: for Final number of surviving mice: control 37.5%
Coxsackie B-4 = assay type: cell-based, Coxsackie B-4 virus; settings: HeLa cells; 100 CCID50; read-out: ID50 (the source's name)
Experimental: The antiviral activity of (S)-DHPA was explored in a variety of cell cultures and with a variety of DNA and RNA viruses such as listed in Table 1. The cells of each cell culture were inoculated with a certain virus in a dose of about 100 CCID50, that is about 100 times the dose needed to infect 50% of the cells. One hour after inoculation, (S)-DHPA was added in varying doses from zero to 40 μg/ml and sometimes to more than 200 μg/ml. For each virus-cell system, the ID50 of (S)-DHPA, that is the dose of (S)-DHPA needed to suppress the cytopathic effect of the virus by 50%, was determined. This cytopathic effect (CPE) was measured in the untreated virus-infected cell cultures [(S)-DHPA dose 0] and recorded as soon as it reached completion (according to the method described by L. J. Rosenthal and I. L. Shechmaister, in "Tissue Culture", page 510, Academic Press, New York, 1973).

Acute toxicity in mice = assay type: in vivo
Measles = test: microbe, parasite or virus in culture; assay type: cell-based; settings: Measles morbillivirus, Vero; read-out: ID50 (the source's name)
[4] = cited from earlier work
[5] = 1 day after infection, control 3.6
[6] = 2 days after infection, control 5.0
[7] = 3 days after infection, control 5.3
[8] = repeated doses of 0.4 mg/mouse (about 27 mg/kg)

Chain of adenosine deaminase (P56658 whole entry): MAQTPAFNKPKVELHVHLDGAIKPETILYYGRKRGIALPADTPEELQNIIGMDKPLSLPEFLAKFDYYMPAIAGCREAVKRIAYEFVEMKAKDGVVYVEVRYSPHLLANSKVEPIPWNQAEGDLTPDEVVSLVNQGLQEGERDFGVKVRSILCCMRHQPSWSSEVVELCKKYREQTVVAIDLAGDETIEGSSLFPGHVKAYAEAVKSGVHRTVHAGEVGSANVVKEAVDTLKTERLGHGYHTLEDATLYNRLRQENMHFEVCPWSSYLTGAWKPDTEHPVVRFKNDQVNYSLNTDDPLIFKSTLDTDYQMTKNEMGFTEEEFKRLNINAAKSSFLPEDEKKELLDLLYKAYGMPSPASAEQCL

Which “Antiviral activity of congeners” value [1] does the source give for `Nc1ncnc2c1ncn2CCC(O)CO` (racemic) [RS-9-(3,4-dihydroxybutyl)-adenine] here?
Its value is “did not demonstrate an antiviral activity”.

For `Nc1ncnc2c1ncn2CCO` [9-(2-hydroxyethyl)adenine], which “Antiviral activity of congeners” value [1] is on record?
The value was “did not demonstrate an antiviral activity”.

Which “Antiviral activity of enantiomers and racemate” value ([1]; listed as R-enantiomeric form) does the source give for `Nc1ncnc2c1ncn2C[C@@H](O)CO` [(R)-DHPA] here?
The value was “not”.

With `Cc1cn(C[C@@H](O)CO)c(=O)[nH]c1=O` [R-1-(2,3-dihydroxypropyl)-thymine] as the compound, how does the “Antiviral activity of congeners” value [1] read?
The value was “did not demonstrate an antiviral activity”.

For `Nc1ncnc2c1ncn2CCCO` [9-(3-hydroxypropyl)adenine], which “Antiviral activity of congeners” value [1] is on record?
The value was “did not demonstrate an antiviral activity”.

For `Nc1ncnc2c1ncn2CC(N)C(=O)O` (racemic) [9-(β-DL-alanyl)-adenine], which “Antiviral activity of congeners” value [1] is on record?
The value was “did not demonstrate an antiviral activity”.

Which “Antiviral activity of congeners” value [1] does the source give for `CC(O)Cn1cnc2c(N)ncnc21` (racemic) [RS-9-(2-hydroxypropyl)adenine] here?
Its value is “did not demonstrate an antiviral activity”.

With `Nc1ncnc2c1ncn2C[C@H](O)[C@@H](O)CO` (relative stereo) [RS-threo-9-(2,3,4-trihydroxybutyl)adenine] as the compound, how does the “Antiviral activity of congeners” value [1] read?
The value was “did not demonstrate an antiviral activity”.

Which “Antiviral activity of congeners” value [1] does the source give for `Nc1ncnc2c1ncn2CCC(O)CCO` (racemic) [RS-9-(3,5-dihydroxypentyl)adenine] here?
Its value is “did not demonstrate an antiviral activity”.

For `Nc1ncnc2c1ncn2CC(O)CO` (racemic) [(RS)-DHPA, (RS)-9-(2,3-dihydroxypropyl)adenine], which “Stability in pure form” value (Stability) is on record?
The value was “practically unlimited”.

What about the “Stability (thermic sterilization of neutral, weakly acid or weakly alkaline solutions possible)” value (Stability) of the same compound?
Its value is “remarkable stability”.

What about the “Antiviral activity of enantiomers and racemate” value [1] of the same compound?
The value was “almost as effective as the (S)-enantiomer”.

And the “Antiviral activity of enantiomers and racemate” value ([1]; listed as RS-form)?
Its value is “almost as effective as the S-form”.

With `O=c1ccn(C[C@H](O)CO)c(=O)[nH]1` [S-1-(2,3-dihydroxypropyl)uracil] as the compound, how does the “Antiviral activity of congeners” value [1] read?
Its value is “did not demonstrate an antiviral activity”.

For `Cc1c[nH]c(=O)n(C[C@H](O)CO)c1=O` [S-3-(2,3-dihydroxypropyl)thymine], which “Antiviral activity of congeners” value [1] is on record?
The value was “did not demonstrate an antiviral activity”.

What does the source list for `Nc1ncnc2c1ncn2[C@@H]1O[C@H](CO)[C@@H](O)[C@@H]1O` [ara-A, 9-(beta-D-arabinofuranosyl)-adenine, reference compound]?
Decrease in absorbance at 265 nm (extent of deamination) (adenosine deaminase; 50 nmol of ara-A): 0.11; Decrease in absorbance at 265 nm (extent of deamination) (adenosine deaminase; 100 nmol of ara-A): 0.16; Virus yield (vaccinia virus; [5]): 2.1 log10 PFU/ml; Virus yield (vaccinia virus; [6]): 4.0 log10 PFU/ml; Virus yield (vaccinia virus; [7]): 5.0 log10 PFU/ml; Antiviral activity (DNA viruses; RNA viruses): marked antiviral activity but only for some DNA viruses

What does the source list for `Nc1ncnc2c1ncn2C[C@H](O)CO` [(S)-DHPA, (S)-9-(2,3-dihydroxypropyl)adenine]?
EC50 (Vaccinia; Skin fibroblast): 10 to 20 µg/mL (≈ 47.8 to 95.6 µM); EC50 (Vaccinia; in Oryctolagus cuniculus): 10 to 20 µg/mL (≈ 47.8 to 95.6 µM); EC50 (Sindbis): > 200 µg/mL; EC50 (Polio-1; HSF): > 200 µg/mL; EC50 (Polio-1; HeLa): > 200 µg/mL; Concentration dependence of inhibition of ara-A deamination (adenosine deaminase; absorbance decrease at 265 nm): inhibited proportionally to the concentration of (S)-DHPA; Inhibition of deamination of ara-A (adenosine deaminase; adenosine deaminase extracted from calf intestinal mucosa): strongly inhibited; EC50 (Vesicular stomatitis; HSF): 2 to 7 µg/mL (≈ 9.56 to 33.5 µM); EC50 (Vesicular stomatitis; HeLa): > 200 µg/mL; EC50 (Vesicular stomatitis; PRK): 7 to 10 µg/mL (≈ 33.5 to 47.8 µM); Stability in pure form (Stability): practically unlimited; Stability (thermic sterilization of neutral, weakly acid or weakly alkaline solutions possible) (Stability): remarkable stability; log reduction at 100 µg/mL ([2]; 24 h): ~4; log reduction at 100 µg/mL ([2]; 48 h): ~4; Virus yield (vaccinia virus; [5]): 3.6 log10 PFU/ml; Virus yield (vaccinia virus; [6]): 4.9 log10 PFU/ml; Virus yield (vaccinia virus; [7]): 5.4 log10 PFU/ml; Potentiation of antiviral activity of ara-A (vaccinia virus; PRK cells, vaccinia virus): markedly potentiated the antiviral activity of ara-A; Final number of surviving mice ([3]; 2 mg/mouse (about 133 mg/kg) i.p. at 1 h and 1, 2, 3, 4 days): 67%; Increase in final number of surviving mice vs control ([3]; 2 mg/mouse i.p., repeated): significant increase; Difference in number of survivors at 9 days vs control ([3]; 2 mg/mouse i.p., repeated, 9 days after infection): significant; Protection ([3]; repeated doses of 0.08 mg/mouse (about 5.4 mg/kg)): did not confer protection; Protection [3, 8]: slight protection; Final number of surviving mice [3, 8]: 55%; EC50 (Coxsackie B-4): > 200 µg/mL; Antiviral activity of enantiomers and racemate [1]: active; Survival in acute toxicity test (LD50 could not be determined) (Acute toxicity in mice; doses up to 1000 mg/kg/day for 3 to 5 days): all mice survived (without any sign of illness); Acute toxicity (Acute toxicity in mice; general statement): very low acute toxicity; EC50 (Measles): 4 to 40 µg/mL (≈ 19.1 to 191 µM)

For `Nc1ncnc2c1ncn2CC[C@H](O)CO` [S-9-(3,4-dihydroxybutyl)adenine], which “Antiviral activity of congeners” value [1] is on record?
The value was “did not demonstrate an antiviral activity”.

Which “Antiviral activity of congeners” value [1] does the source give for `NCCn1cnc2c(N)ncnc21` [9-(2-aminoethyl)adenine] here?
The value was “did not demonstrate an antiviral activity”.

With `Nc1ncnc2c1ncn2C(CO)CO` [2-(9-adeninyl)propane-1,3-diol] as the compound, how does the “Antiviral activity of congeners” value [1] read?
The value was “did not demonstrate an antiviral activity”.

Which Antiviral activity (DNA viruses; RNA viruses) does the source give for `NC(=O)c1ncn([C@@H]2O[C@H](CO)[C@@H](O)[C@H]2O)n1` [ribavirin, (1-beta-D-ribofuranosyl)-1,2,4-triazole-3-carboxamide] here?
The Antiviral activity was “broad-spectrum antiviral activity”.

What about the Safety margin ([4]; known from literature) of the same compound?
Its Safety margin is “rather narrow safety margin”.

What about the Toxicity ([4]; known) of the same compound?
The Toxicity was “high toxicity”.

For `O=c1[nH]cnc2c1ncn2C[C@H](O)CO` [S-9-(2,3-dihydroxypropyl)hypoxanthine], which “Antiviral activity of congeners” value [1] is on record?
Its value is “did not demonstrate an antiviral activity”.

With `O=c1ccn(CCC(O)CCO)c(=O)[nH]1` (racemic) [RS-1-(3,5-dihydroxypentyl)uracil] as the compound, how does the “Antiviral activity of congeners” value [1] read?
The value was “did not demonstrate an antiviral activity”.

Which “Antiviral activity of congeners” value [1] does the source give for `Cc1cn(C[C@H](O)CO)c(=O)[nH]c1=O` [S-1-(2,3-dihydroxypropyl)thymine] here?
Its value is “did not demonstrate an antiviral activity”.

For `O=c1ccn(CC[C@H](O)CO)c(=O)[nH]1` [S-1-(3,4-dihydroxybutyl)-racil], which “Antiviral activity of congeners” value [1] is on record?
The value was “did not demonstrate an antiviral activity”.

Reference: patent US4230708A (priority 1977, dated 1980)
